In ChEMBL document CHEMBL1201862, “PubChem BioAssay data set” (2004):
Active and inactive are the calls of the source.

Columns and labels:
[1] = Shn3 3'UTR reporter inhibitors, dose response, cell-based, Clone20 osteoblasts, firefly luciferase, cherry-picked (AID 624132); format: functional;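 also: firefly luciferase luminescence from reporter carrying the Shn3 3'UTR in osteoblasts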
[2] = molecular target: Glucose-6-phosphate 1-dehydrogenase (Homo sapiens, UniProt P11413); assay: human G6PD enzyme inhibitors, dose response, selectivity assay for P. falciparum G6PD inhibitor project, biochemical, fluorescence (AID 504792); format: functional
Glucose-6-phosphate 1-dehydrogenase, sequence (P11413 whole entry): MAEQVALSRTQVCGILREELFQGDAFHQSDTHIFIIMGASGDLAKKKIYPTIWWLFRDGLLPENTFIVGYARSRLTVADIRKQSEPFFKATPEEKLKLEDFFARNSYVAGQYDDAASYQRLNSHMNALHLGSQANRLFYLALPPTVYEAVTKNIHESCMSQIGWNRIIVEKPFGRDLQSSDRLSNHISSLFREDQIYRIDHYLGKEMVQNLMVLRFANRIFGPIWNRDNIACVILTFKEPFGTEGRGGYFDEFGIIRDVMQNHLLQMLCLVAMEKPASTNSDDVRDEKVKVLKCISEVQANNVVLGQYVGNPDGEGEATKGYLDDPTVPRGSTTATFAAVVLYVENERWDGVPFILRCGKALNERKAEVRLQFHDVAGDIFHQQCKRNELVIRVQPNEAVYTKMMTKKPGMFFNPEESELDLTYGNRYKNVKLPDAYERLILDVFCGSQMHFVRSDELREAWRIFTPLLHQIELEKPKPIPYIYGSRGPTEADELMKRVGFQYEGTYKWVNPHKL

[3] = HepG2 cell cytotoxicity, dose response, cytotoxicity control for Shn3 inhibitor project, CellTiter-Glo, cherry-picked (AID 624134); format: functional, cell-based
[4] = test system: HEK293; assay: SAR analysis of compounds that are cytotoxic to HEK293 - Set 2. [Related pubchem assays (depositor defined):AID1575, AID1578, AID1849, AID2001, AID2333, AID2334, AID2335, AID2337, AID2800]; format: functional, cell-based; conditions: Homo sapiens
[5] = test system: CHO; assay: cytotoxicity in TLR9-MyD88 CHO cells, dose response, cytotoxicity control for TLR9-MyD88 binding inhibitor project, cell-based, luminescence (AID 588339); format: functional, hamster; conditions: Cricetulus griseus;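 also: CHO cells stably coexpressing TLR9 and MyD88 fusions from primary screen; compound exposure lasted 48 hours before viability readout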
[6] = HEK293T cell cytotoxicity, dose response, cytotoxicity control for HIV Vif inhibitor project, cherry-picks (AID 652208); format: functional, cell-based
[7] = Vero E6 cell cytotoxicity, dose response, cytotoxicity control for non-replicating M. tuberculosis project, secondary assay (AID 492998); format: functional, VeroE6; conditions: Vero C1008
[8] = molecular target: T1, Nucleotide-binding oligomerization domain-containing protein 1 (Homo sapiens, UniProt Q9Y239); assay: SAR analysis of compounds that inhibit NOD1 - Set 2. [Related pubchem assays (depositor defined):AID1566, AID1575, AID1578, AID1849, AID1852, AID2333, AID2335, AID2798]; format: functional
T1 sequence (Q9Y239 whole entry): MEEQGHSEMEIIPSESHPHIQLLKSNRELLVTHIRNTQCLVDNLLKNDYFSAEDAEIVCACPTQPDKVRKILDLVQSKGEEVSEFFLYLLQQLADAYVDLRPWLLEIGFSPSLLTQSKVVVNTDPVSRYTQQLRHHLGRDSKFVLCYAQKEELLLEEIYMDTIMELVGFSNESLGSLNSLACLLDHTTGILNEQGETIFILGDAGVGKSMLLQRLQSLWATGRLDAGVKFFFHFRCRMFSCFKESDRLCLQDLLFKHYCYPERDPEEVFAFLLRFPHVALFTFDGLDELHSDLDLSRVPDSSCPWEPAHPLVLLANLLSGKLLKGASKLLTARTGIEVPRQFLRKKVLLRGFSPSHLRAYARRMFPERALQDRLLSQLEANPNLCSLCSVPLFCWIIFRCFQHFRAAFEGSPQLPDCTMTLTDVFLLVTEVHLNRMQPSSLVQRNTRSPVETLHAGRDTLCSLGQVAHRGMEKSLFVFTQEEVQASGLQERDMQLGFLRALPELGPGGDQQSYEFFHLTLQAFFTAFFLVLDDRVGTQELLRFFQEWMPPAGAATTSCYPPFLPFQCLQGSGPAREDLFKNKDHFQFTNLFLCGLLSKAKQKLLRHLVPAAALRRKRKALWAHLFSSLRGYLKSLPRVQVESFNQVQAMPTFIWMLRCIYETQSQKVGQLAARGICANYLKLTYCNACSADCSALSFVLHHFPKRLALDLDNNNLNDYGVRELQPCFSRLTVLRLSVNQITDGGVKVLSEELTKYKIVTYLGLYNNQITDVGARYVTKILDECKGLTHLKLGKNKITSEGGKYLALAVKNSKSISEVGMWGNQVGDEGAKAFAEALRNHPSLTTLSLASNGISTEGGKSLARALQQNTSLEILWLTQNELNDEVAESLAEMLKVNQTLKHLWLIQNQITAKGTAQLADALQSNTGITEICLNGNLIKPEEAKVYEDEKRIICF

[9] = molecular target: T2, Interleukin-8 (Homo sapiens, UniProt P10145); assay: SAR analysis of GM-Tri-DAP induced IL-8 secretion in MCF-7/NOD1 cells - Set 2. [Related pubchem assays (depositor defined):AID1575, AID1578, AID2333]; format: functional, cell-based
T2 sequence (P10145 whole entry): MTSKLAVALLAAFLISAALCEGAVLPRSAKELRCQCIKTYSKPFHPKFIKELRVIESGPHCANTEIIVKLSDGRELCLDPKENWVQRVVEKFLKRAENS

[10] = control 3'UTR Renilla luciferase suppression, dose response, counter-screen for Shn3 inhibitor project, cell-based, Clone20-Shn3RL, cherry-picked (AID 624133); format: functional
[11] = cells; format: functional
[12] = THP-1 cell cytotoxicity, dose response, cytotoxicity control for non-replicating M. tuberculosis project (AID 489025); format: functional
[13] = molecular target: T1, Nucleotide-binding oligomerization domain-containing protein 1; assay: SAR analysis of NF-kappaB dependent luciferase using DAP as an inducer - Set 2. [Related pubchem assays (depositor defined):AID1566, AID1575, AID1578, AID1579, AID1849, AID1852, AID2264]; format: functional
[14] = molecular target: T3, Caspase-6 (Homo sapiens, UniProt P55212); assay: human caspase-6 inhibitors, dose response, biochemical, VEID-R110 fluorescence, cherry-pick (AID 720632)
T3 sequence (P55212 whole entry): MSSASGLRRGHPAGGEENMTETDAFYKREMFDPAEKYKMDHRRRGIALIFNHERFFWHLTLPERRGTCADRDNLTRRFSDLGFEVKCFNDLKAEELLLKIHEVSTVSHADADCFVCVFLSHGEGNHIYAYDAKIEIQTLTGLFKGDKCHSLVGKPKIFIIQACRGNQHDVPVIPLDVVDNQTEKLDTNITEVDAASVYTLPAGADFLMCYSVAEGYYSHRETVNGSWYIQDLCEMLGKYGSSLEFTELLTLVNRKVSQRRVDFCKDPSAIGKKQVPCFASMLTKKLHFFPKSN

[15] = molecular target: Ras and Rab interactor 1/Tyrosine-protein kinase ABL1 (Homo sapiens, UniProt P00519+Q13671); assay: biochemical; format: functional;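 also: biochemical TR-FRET dose-response test measuring inhibition of binding between Rin1 and Abl proteins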
Ras and Rab interactor 1/Tyrosine-protein kinase ABL1, sequence (P00519 whole entry): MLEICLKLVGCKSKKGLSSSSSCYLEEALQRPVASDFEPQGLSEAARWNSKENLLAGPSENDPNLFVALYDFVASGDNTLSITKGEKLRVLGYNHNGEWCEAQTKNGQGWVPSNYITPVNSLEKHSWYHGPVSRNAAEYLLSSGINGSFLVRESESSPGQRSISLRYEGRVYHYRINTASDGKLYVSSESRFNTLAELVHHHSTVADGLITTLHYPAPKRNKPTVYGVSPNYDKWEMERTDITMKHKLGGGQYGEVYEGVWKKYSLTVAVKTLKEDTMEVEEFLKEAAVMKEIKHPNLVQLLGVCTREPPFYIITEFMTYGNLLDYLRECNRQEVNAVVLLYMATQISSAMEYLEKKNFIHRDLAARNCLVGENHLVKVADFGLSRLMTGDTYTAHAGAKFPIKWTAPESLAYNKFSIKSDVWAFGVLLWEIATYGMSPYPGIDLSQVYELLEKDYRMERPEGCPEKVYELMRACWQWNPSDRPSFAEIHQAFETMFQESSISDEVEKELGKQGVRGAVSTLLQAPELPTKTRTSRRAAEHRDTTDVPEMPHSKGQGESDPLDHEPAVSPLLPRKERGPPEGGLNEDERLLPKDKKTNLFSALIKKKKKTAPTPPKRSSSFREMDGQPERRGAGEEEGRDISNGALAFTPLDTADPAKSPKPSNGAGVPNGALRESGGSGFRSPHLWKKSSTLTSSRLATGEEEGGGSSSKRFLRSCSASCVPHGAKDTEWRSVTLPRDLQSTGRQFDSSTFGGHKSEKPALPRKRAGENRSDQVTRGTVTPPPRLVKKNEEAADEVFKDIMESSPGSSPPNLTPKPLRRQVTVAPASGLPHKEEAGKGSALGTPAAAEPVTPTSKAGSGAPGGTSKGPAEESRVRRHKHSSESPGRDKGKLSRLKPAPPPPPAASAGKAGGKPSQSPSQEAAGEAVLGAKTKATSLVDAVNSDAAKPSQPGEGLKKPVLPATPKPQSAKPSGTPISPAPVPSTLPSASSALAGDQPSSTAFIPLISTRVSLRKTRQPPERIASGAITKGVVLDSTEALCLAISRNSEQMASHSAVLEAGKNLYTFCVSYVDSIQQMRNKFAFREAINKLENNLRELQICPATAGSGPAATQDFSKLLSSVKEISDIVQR
Ras and Rab interactor 1/Tyrosine-protein kinase ABL1, sequence (Q13671 whole entry): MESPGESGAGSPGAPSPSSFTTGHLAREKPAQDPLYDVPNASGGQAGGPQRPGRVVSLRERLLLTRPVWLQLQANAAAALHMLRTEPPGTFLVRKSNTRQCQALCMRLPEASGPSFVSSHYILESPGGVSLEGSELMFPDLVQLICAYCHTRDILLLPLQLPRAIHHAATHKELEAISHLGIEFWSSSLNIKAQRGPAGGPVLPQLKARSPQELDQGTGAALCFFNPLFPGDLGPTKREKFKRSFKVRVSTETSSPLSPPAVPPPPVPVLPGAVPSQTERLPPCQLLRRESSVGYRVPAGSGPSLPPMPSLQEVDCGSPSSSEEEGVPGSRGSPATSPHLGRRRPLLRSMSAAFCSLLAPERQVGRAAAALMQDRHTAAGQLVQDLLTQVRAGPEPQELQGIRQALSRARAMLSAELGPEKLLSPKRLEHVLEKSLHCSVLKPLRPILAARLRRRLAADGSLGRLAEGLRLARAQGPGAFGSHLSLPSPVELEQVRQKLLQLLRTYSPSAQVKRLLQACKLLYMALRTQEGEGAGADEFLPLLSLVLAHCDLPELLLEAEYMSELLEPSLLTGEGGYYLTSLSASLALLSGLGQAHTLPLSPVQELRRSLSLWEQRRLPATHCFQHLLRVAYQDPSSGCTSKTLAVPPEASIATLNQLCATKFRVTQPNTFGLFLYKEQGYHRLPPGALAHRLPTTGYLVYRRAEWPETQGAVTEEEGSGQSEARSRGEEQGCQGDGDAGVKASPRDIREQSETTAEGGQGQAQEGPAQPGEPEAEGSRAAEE

[16] = molecular target: Transitional endoplasmic reticulum ATPase (Homo sapiens, UniProt P55072); assay: p97 ATPase inhibitors, dose response, biochemical (AID 1534)
Transitional endoplasmic reticulum ATPase (Homo sapiens, UniProt P55072), sequence (P55072 whole entry): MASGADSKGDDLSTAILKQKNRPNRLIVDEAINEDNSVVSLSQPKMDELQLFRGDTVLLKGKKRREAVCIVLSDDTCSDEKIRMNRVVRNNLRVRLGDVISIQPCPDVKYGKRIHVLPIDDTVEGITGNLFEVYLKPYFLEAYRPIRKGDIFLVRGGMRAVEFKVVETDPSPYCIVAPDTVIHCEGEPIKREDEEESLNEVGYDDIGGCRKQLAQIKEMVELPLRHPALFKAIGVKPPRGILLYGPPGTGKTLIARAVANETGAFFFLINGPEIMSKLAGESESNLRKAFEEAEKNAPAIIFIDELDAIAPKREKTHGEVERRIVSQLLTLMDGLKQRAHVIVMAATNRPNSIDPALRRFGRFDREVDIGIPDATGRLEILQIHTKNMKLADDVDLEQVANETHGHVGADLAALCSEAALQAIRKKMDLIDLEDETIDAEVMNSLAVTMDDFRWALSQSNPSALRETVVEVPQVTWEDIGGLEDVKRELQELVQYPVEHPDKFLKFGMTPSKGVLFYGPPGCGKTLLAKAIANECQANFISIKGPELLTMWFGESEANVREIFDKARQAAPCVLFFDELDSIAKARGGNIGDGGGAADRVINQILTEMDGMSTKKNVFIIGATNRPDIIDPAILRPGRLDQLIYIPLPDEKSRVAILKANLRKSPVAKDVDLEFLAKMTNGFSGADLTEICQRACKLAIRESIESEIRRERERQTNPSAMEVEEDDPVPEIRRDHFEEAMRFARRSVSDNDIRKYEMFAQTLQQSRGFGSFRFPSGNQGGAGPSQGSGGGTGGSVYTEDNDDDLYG

[17] = molecular target: Transitional endoplasmic reticulum ATPase (Homo sapiens, UniProt P55072, C522A); assay: C522A mutant p97 ATPase inhibitors, dose response, counter-screen for p97 inhibitor project, biochemical, luminescence (AID 1544)
Transitional endoplasmic reticulum ATPase (Homo sapiens, UniProt P55072, C522A), sequence (P55072 2-806 C522A limits assumed): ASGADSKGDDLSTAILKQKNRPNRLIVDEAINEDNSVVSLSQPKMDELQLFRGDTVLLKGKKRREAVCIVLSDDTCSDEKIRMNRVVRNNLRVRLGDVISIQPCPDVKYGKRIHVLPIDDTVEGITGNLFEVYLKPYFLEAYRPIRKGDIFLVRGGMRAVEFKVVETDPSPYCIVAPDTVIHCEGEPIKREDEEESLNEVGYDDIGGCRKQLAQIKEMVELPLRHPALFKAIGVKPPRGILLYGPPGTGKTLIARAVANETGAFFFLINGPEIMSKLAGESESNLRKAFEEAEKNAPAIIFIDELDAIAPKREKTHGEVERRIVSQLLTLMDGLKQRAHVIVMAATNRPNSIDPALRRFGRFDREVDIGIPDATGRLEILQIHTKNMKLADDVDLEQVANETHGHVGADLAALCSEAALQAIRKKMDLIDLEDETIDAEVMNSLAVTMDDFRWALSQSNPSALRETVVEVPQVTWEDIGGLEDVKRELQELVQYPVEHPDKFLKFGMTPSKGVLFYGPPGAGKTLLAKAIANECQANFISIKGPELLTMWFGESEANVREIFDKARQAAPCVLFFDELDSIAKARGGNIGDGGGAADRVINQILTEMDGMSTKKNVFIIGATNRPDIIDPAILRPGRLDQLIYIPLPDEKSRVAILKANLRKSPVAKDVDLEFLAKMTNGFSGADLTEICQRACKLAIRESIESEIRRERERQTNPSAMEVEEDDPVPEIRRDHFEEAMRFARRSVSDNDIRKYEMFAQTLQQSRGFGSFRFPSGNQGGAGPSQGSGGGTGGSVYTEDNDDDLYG

## Cn1c(=O)[nH]c(=O)c2c1nc([N+](=O)[O-])n2Cc1ccccc1
[1]
  AC50: 1.9 µM (active)
[2]
  IC50: 47.9 µM (inactive)
[3]
  AC50: 18.3 µM (active)
[4]
  IC50: 13.7 µM (active)
[5]
  IC50: 2.23 µM (active)
[6]
  AC50: 4.52 µM (active)
[7]
  CC50: 6.75 µM (active)
[8]
  IC50: 0.785 µM (active)
[9]
  IC50: 2.16 µM (active)
[10]
  AC50: 5.91 µM (active)
[11]
  IC50: 4.75 µM (active)
[12]
  CC50: 3.23 µM (active)
[13]
  IC50: > 25 µM (inactive)

## CCN(c1ccccc1)c1cc2ccccc2c(=O)[nH]1
[14]
  AC50: 5.45 µM (active)

## O=C(NC1(O)C(=O)c2ccccc2C1=O)c1c(Cl)cccc1Cl
[15]
  IC50: 21 µM (inactive)
[16]
  IC50: > 50 µM (not active)
[17]
  IC50: > 50 µM (not active)
